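Compound exposure: 48 hours, 5 concentrations, 96-well plates. Definition used: TGI = concentration required for complete inhibition of growth.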
How the values were obtained:
Test in all cases: NCI-60 cell line screen, 48 h
[1] = tested on: A498 renal
[2] = tested on: BT-549 breast
[3] = tested on: CAKI-1 renal
[4] = tested on: CCRF-CEM leukemia
[5] = tested on: COLO 205 colon
[6] = tested on: DU-145 prostate
[7] = tested on: HCC-2998 colon
[8] = tested on: HCT-116 colon
[9] = tested on: HCT-15 colon
[10] = tested on: HL-60(TB) leukemia
[11] = tested on: HOP-62 NSCLC
[12] = tested on: HOP-92 NSCLC
[13] = tested on: HS 578T breast
[14] = tested on: HT29 colon
[15] = tested on: IGROV1 ovarian
[16] = tested on: K-562 leukemia
[17] = tested on: KM12 colon
[18] = tested on: LOX IMVI melanoma
[19] = tested on: M14 melanoma
[20] = tested on: MALME-3M melanoma
[21] = tested on: MCF7 breast
[22] = tested on: MDA-MB-231 breast
[23] = tested on: MDA-MB-435
[24] = tested on: MDA-N
[25] = tested on: MOLT-4 leukemia
[26] = tested on: NCI-H226 lung
[27] = tested on: NCI-H23 lung
[28] = tested on: NCI-H460 lung
[29] = tested on: NCI/ADR-RES ovarian
[30] = tested on: OVCAR-3 ovarian
[31] = tested on: OVCAR-4 ovarian
[32] = tested on: OVCAR-5 ovarian
[33] = tested on: OVCAR-8 ovarian
[34] = tested on: PC-3 prostate
[35] = tested on: RPMI-8226 leukemia
[36] = tested on: RXF 393 renal
[37] = tested on: SF-295 CNS
[38] = tested on: SK-MEL-2 melanoma
[39] = tested on: SK-MEL-28 melanoma
[40] = tested on: SK-MEL-5 melanoma
[41] = tested on: SN12C renal
[42] = tested on: SNB-19 CNS
[43] = tested on: SNB-75 CNS
[44] = tested on: SR leukemia
[45] = tested on: SW-620 colon
[46] = tested on: T-47D breast
[47] = tested on: TK-10 renal
[48] = tested on: U251 CNS
[49] = tested on: UACC-257 melanoma
[50] = tested on: UACC-62 melanoma
[51] = tested on: UO-31 renal
[52] = tested on: 786-0 renal
[53] = tested on: A549 NSCLC
[54] = tested on: ACHN renal
[55] = tested on: EKVX NSCLC
[56] = tested on: SF-268 CNS

Cc1[nH]c(=O)[nH]c(=S)c1C(=O)NC1C2CCCCC2NC2CCCCC21 (centres undefined)
TGI [1]: 41.2 µM
TGI [2]: 32.8 µM
TGI [3]: 33.7 µM
TGI [4]: 36.2 µM
TGI [5]: 39.5 µM
TGI [6]: 26.6 µM
TGI [7]: 84.6 µM
TGI [8]: 31 µM
TGI [9]: 25.9 µM
TGI [10]: > 100 µM
TGI [11]: 32.9 µM
TGI [12]: 33.6 µM
TGI [13]: 61.8 µM
TGI [14]: 48 µM
TGI [15]: 33.2 µM
TGI [16]: > 100 µM
TGI [17]: 34.4 µM
TGI [18]: 64 µM
TGI [19]: 29.6 µM
TGI [20]: 46.8 µM
TGI [21]: 37.2 µM
TGI [22]: 33.1 µM
TGI [23]: 20.7 µM
TGI [24]: 34.9 µM
TGI [25]: 43.9 µM
TGI [26]: 33.2 µM
TGI [27]: 29.8 µM
TGI [28]: 31.6 µM
TGI [29]: 40.2 µM
TGI [30]: 29.5 µM
TGI [31]: 50.7 µM
TGI [32]: 34.1 µM
TGI [33]: 36.2 µM
TGI [34]: 29.4 µM
TGI [35]: > 100 µM
TGI [36]: 27.6 µM
TGI [37]: 32.8 µM
TGI [38]: 36.6 µM
TGI [39]: 23.8 µM
TGI [40]: 33.3 µM
TGI [41]: 58 µM
TGI [42]: 29.7 µM
TGI [43]: 32.3 µM
TGI [44]: > 100 µM
TGI [45]: 40.2 µM
TGI [46]: 43.8 µM
TGI [47]: 30.6 µM
TGI [48]: 27.1 µM
TGI [49]: 33.5 µM
TGI [50]: 16.3 µM
TGI [51]: 26.7 µM

O=c1c(Cc2c(O)ccc3ccccc23)nnc2sc(-c3nn4c(=O)c(Cc5c(O)ccc6ccccc56)nnc4s3)nn12
TGI [52]: > 100 µM
TGI [1]: > 100 µM
TGI [53]: > 100 µM
TGI [54]: > 100 µM
TGI [2]: > 100 µM
TGI [3]: > 100 µM
TGI [4]: 96.3 µM
TGI [6]: > 100 µM
TGI [55]: > 100 µM
TGI [7]: > 100 µM
TGI [8]: > 100 µM
TGI [9]: > 100 µM
TGI [10]: > 100 µM
TGI [11]: > 100 µM
TGI [12]: > 100 µM
TGI [13]: > 100 µM
TGI [14]: > 100 µM
TGI [15]: > 100 µM
TGI [16]: > 100 µM
TGI [18]: > 100 µM
TGI [19]: > 100 µM
TGI [20]: > 100 µM
TGI [21]: > 100 µM
TGI [22]: > 100 µM
TGI [23]: > 100 µM
TGI [24]: > 100 µM
TGI [27]: > 100 µM
TGI [29]: > 100 µM
TGI [30]: > 100 µM
TGI [31]: > 100 µM
TGI [32]: > 100 µM
TGI [33]: > 100 µM
TGI [34]: > 100 µM
TGI [35]: > 100 µM
TGI [36]: 84.4 µM
TGI [56]: > 100 µM
TGI [38]: 40.3 µM
TGI [41]: > 100 µM
TGI [42]: > 100 µM
TGI [43]: 39.9 µM
TGI [44]: > 100 µM
TGI [45]: > 100 µM
TGI [46]: > 100 µM
TGI [47]: > 100 µM
TGI [48]: > 100 µM
TGI [49]: > 100 µM
TGI [50]: > 100 µM
TGI [51]: > 100 µM

From PubChem BioAssay (NCI)
